Reference: patent US8507445B2, “Compositions and methods of use of targeting peptides for diagnosis and therapy of human cancer” (Board of Regents, The University of Texas System, priority 2002, dated 2013)
Blank lines part the entries; values can stand above or below the sequence they belong to.

Experiments:
[1] = tested on: antibodies isolated from the ascites of an ovarian cancer patient; experiment: Competition of ascites antibody binding to immobilized GST fusion protein; set-up: species or system human
Experimental: Inhibition studies were performed in a similar manner as the binding assays described above with the exception that either GST fusion protein or synthetic peptide corresponding to the phage clone were added to the experiment. Where the peptide is mediating the interaction with the immunoglobulins then an inhibition of phage binding should be observed in a dose dependent manner versus the synthetic peptide. GST alone and a control peptide containing unrelated amino acids were tested at identical concentrations.
Peptide sequences of interest were expressed as GST fusion proteins (described above) and used to screen banked ascites and serum to determine the role of the humoral response against these markers. The purified GST-fusion proteins were used to coat a 96-well plate at 100 ng/well at room temperature (RT) or at 4° C. overnight. Following coating, the wells were emptied, rinsed, and non-specific sites were blocked with 200 μl 3% BSA/PBS at RT for 1-2 hours. Cancer patient ascites and/or sera were applied to each coated and blocked well at 1:100 dilution and then incubated at RT for 1 hour. […] Signals were detected in the presence of p-nitrophenyl phosphate by measuring OD405 at specific intervals to follow the course of color development. […]

[2] = tested on: IgGs isolated from the ascites of ovarian cancer patients; experiment: Biopanning of CX7C phage library on IgGs from ovarian cancer ascites; type: binding, human
Experimental: To identify peptide epitopes specific for the anti-tumor immune response in ovarian cancer, a two-step screening procedure was followed (FIG. 34). The peptide library was initially pre-cleared on IVIg (intravenous immunoglobulins) to remove non-specific peptides. The pre-cleared peptide phage library was then incubated with IgGs isolated from the ascites of ovarian cancer patients. Phage bound to the ovarian cancer IgGs were recovered, amplified, and precipitated for subsequent rounds of biopanning. Following enrichment of a phage population that bound to ovarian cancer patient IgGs, individual phage clones were picked for sequence analysis to evaluate enrichment of the most consistently binding peptide sequences. Phage display biopanning was performed as described above.
Once the selection rounds were completed as determined by enrichment of phage capable of binding cancer patient IgGs over control at least 3 fold, sequencing and evaluation of the DNA phage insert were undertaken. To sequence the FUSE5 ssDNA directly, phage ssDNA was prepared using the StrataClean™ resin (Stratagene). StrataClean bead slurry was placed in a microcentrifuge tube containing phage. The mixture was vortexed strongly for 30 seconds and then incubated at room temperature for one minute. The tubes were centrifuged at 2,000×g for 1 minute. […]

HSP90α = molecular target: T1, HSP90α (Homo sapiens, UniProt P07900); experiment: Receptor purification on biotinylated peptide beads; type: binding; details: MALDI analysis of excised bands
T1 construct: from tissue; host or cells: homogenate pellet of DU145 xenograft tumor grown in nude mice
Experimental: The prostate homing receptor for the B2 clone ([…] SEQ ID NO:83) was identified. Nude mice bearing DU145 xenografts were prepared and tissue samples from tumor, kidney and liver were removed. The tissue samples were immediately washed with PBS and three parts of homogenization buffer (PBS, 250 mM sucrose, 1 mM EDTA, protease inhibitors) was added to one part of tissue sample (about 4 ml). The tissue with homogenized with an electric grinder, then further homogenized with a dounce homogenizer. After sonication for 1 min on ice, the homogenate was centrifuged at 8000×g for 5 min. The supernatant was removed and the pellet was analyzed for receptor content.
The […] (SEQ ID NO:83) peptide was biotinylated and coupled to NeutrAvidin beads (Molecular Probes, Eugene, Oreg.) using standard methods. About 500 μg of biotinylated peptide was incubated with 1 ml of NeutrAvidin beads in binding buffer (0.5 M NaCl in PBS) overnight at 4° C. in a 2 ml column. The column was agitated using a rotator. Uncoupled peptides were removed and the beads washed three times with binding buffer and protease inhibitors. […]
The beads were washed four times with wash buffer (0.1% Triton X-100 in PBS with protease inhibitors) and the bound material eluted with 8 M guanidine HCl. Eluted proteins were analyzed on a 4-20% SDS-PAGE denaturing gel. […]

DU145 tumors = experiment: Competition of phage tumor localization by synthetic peptide; type: in vivo, nude mice; details: 300 μg synthetic peptide co-injected with phage
Experimental: Competition studies with the […] (SEQ ID NO:83) peptide were performed to determine whether it could inhibit localization of phage bearing the same targeting sequence to DU145 tumors. Nude mice bearing the prostate tumor xenograft were simultaneously injected with 300 μg of synthetic […] (SEQ ID NO:83) peptide and 10^9 phage bearing the same targeting peptide sequence. A control tumor-bearing mouse was co-injected with fd insertless phage plus synthetic peptide. After 24 hours of circulation, tumor tissue samples were removed, washed, fixed, sectioned and stained as disclosed above. Co-administration of synthetic peptide with the same targeting sequence inhibited the ability of […] (SEQ ID NO:83)-phage to localize to prostate carcinoma tissue (not shown). No staining of prostate carcinoma with control fd-tet phage was observed (not shown)

[3] = tested on: MDA-MB-435 breast carcinoma; experiment: Phage localization, separate study; details: in vivo
DU145 xenografts = experiment: Phage localization by anti-phage staining of tissues; type: in vivo, nude mice; details: 24 hour circulation
Experimental: To determine the specificity of the prostate tumor targeting peptides, 10^9 phage carrying the targeting peptide sequences […] (SEQ ID NO:83) and […] (SEQ ID NO:84) were injected into nude mice bearing DU145 xenografts. After 24 hour circulation, tissue samples were obtained from tumor and control organs (kidney, brain, lung and spleen). Tissue samples were washed immediately in DMAM and fixed in 10% formalin for 48 hours at room temperature. Thin sections were stained for phage using anti-phage antibody (1:500 dilution) and detected using the DAKO LSAB+ system. […] This may be due to the tendency of spleen tissue to trap phage and other foreign particles in general as part of the reticuloendothelial system.

Sequence: CVPELGHEC
inhibition of antibody binding to immobilized GST-CVPELGHEC [1]: competitively inhibited in a dose-dependent fashion
share of the phage clones sequenced [2]: 86%

receptor identified (HSP90α): HSP90α
Sequence: YRCTLNSPFFWEDMTHECHA [listing 1 of 2 here]
inhibition of phage localization to prostate carcinoma (DU145 tumors): inhibited

Sequence: YRCTLNSPFFWEDMTHECHA [listing 2 of 2 here]
phage localization [3]: no apparent localization
anti-phage staining of control kidney, brain or lung (DU145 xenografts): No staining was observed
anti-phage staining of normal spleen (DU145 xenografts): low level of anti-phage staining
anti-phage staining of tumor (DU145 xenografts): very heavy staining
